{"source": "patent US20130130986A1", "about": "“CANCER TREATMENT WITH RECOMBINANT VECTOR” (TOCAGEN INC., priority 2010, published 2013)", "molecules": {"B1": {"name": "yCD2: human codon optimized yeast cytosine deaminase with substitutions A23L/V108I/I140L (protein, UniProt Q12178 1-158, looked up, variant A23L V108I I140L)", "Cytosine deaminase": "MVTGGMASKWDQKGMDIAYEEALLGYKEGGVPIGGCLINNKDGSVLGRGHNMRFQKGSATLHGEISTLENCGRLEGKVYKDTTLYTTLSPCDMCTGAIIMYGIPRCVIGENVNFKSKGEKYLQTRGHEVVVVDDERCKKLMKQFIDERPQDWFEDIGE"}}, "key": {"Tu2449": {"test_system": "Tu2449", "experiment": "Thymosin combination therapy in Tu2449/B6C3F1 glioma mouse model, survival", "format": "in vivo", "conditions": "TA1 200 μg/kg IP SID 28 days added to suboptimal Toca511 (E3) and standard BID 5-FC, FIG. 10", "description": "Experiments using Thymosin Alpha 1 were performed in conjunction with Toca 511 treatment in the Tu2449/B6C3F1 glioma mouse model (U. Pohle et al. Int J Oncol. 15:829-834 (1999); HM. Smilowitz et al. J. Neurosurg 106:652-659 2007). […] Thymosin Alpha 1 was obtained from Sigma Aldrich cat# T3641 and a stock solution made in sterile water at 400 μg/mL. TA1 (200 μg/kg, […]) was given IP starting on day 7 SID for 28 days."}, "U-87 cells": {"test_system": "U-87 cells", "experiment": "yCD2 versus wild type yCD protein level in infected cells (FIG. 4)", "format": "cell-based, human", "conditions": "infected U-87 cells"}}, "note": "No end group written: not given here.", "data": [{"molecule": "thymosin alpha 1 (Ac-SDAAVDTSSEITTKDLKEKKEVVEEAEN; listed as Homo sapiens) [Sigma Aldrich cat# T3641]", "values": [{"measurement": "survival rate", "setting": "Tu2449", "result": "increased the survival rate to that of the optimal E5 dosing of Toca 511"}]}, {"molecule": "B1", "values": [{"measurement": "CD protein level", "setting": "U-87 cells", "result": "higher levels"}]}]}
